According to ChEMBL document CHEMBL1201862, “PubChem BioAssay data set” (2004):
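Grown in 96-well plates, cells were treated for 48 hours with each compound at five concentrations. Insufficient inhibition: endpoint recorded as highest concentration tested. GI50 = concentration required for 50% inhibition of growth.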 Activity calls are given as the source filed them. No stated cut-off is given here; in the data, active = GI50 up to about 1.1 µM and inactive = higher. Peptide text beside a SMILES is read from it. * marks the point of attachment. Boc = CC(C)(C)OC(=O)*

What was measured:
Test in all cases: DTP human tumour cell line panel, 48 h
NCI-H23 = tested on: NCI-H23
786-0 = tested on: 786-0
OVCAR-3 = tested on: OVCAR-3
SK-OV-3 = tested on: SK-OV-3
M14 = tested on: M14
HOP-62 = tested on: HOP-62
IGROV-1 = tested on: IGROV-1
SW-620 = tested on: SW-620
SR = tested on: SR
OVCAR-8 = tested on: OVCAR-8
CAKI-1 = tested on: CAKI-1
HL-60 = tested on: HL-60
NCI-H226 = tested on: NCI-H226
UACC-62 = tested on: UACC-62
U-251 = tested on: U-251
MDA-MB-435 = tested on: MDA-MB-435
DU-145 = tested on: DU-145
TK-10 = tested on: TK-10
HCT-116 = tested on: HCT-116
MCF7 = tested on: MCF7
CCRF-CEM = tested on: CCRF-CEM
HT-29 = tested on: HT-29
PC-3 = tested on: PC-3
MOLT-4 = tested on: MOLT-4
SNB-75 = tested on: SNB-75
MDA-N = tested on: MDA-N
MDA-MB-231 = tested on: MDA-MB-231
NCI-H460 = tested on: NCI-H460
ACHN = tested on: ACHN
HCT-15 = tested on: HCT-15
Malme-3M = tested on: Malme-3M
NCI/ADR-RES = tested on: NCI/ADR-RES
SK-MEL-5 = tested on: SK-MEL-5
BT-549 = tested on: BT-549
EKVX = tested on: EKVX
SNB-19 = tested on: SNB-19
SN12C = tested on: SN12C
LOX IMVI = tested on: LOX IMVI
T47D = tested on: T47D
RPMI-8226 = tested on: RPMI-8226
COLO 205 = tested on: COLO 205
HOP-92 = tested on: HOP-92
SK-MEL-2 = tested on: SK-MEL-2
NCI-H522 = tested on: NCI-H522
SF-268 = tested on: SF-268
OVCAR-5 = tested on: OVCAR-5
UO-31 = tested on: UO-31
SF-295 = tested on: SF-295
A549 = tested on: A549
RXF 393 = tested on: RXF 393
K562 = tested on: K562
SF-539 = tested on: SF-539
SK-MEL-28 = tested on: SK-MEL-28
KM12 = tested on: KM12
A498 = tested on: A498
Hs-578T = tested on: Hs-578T
HCC 2998 = tested on: HCC 2998
UACC-257 = tested on: UACC-257
OVCAR-4 = tested on: OVCAR-4

For `CC(NC(=O)OC(C)(C)C)C(=O)NC(Cc1ccccc1)C(=O)NCC(=O)O` (stereo not drawn) (Boc-Ala-Phe-Gly-OH; configuration not given here), the GI50 (NCI-H23) was > 100 µM (inactive), the GI50 (786-0) was > 100 µM (inactive) and the GI50 (OVCAR-3) was > 100 µM (inactive). The GI50 (SK-OV-3) was > 100 µM (inactive), the GI50 (M14) was > 100 µM (inactive) and the GI50 (HOP-62) was > 100 µM (inactive). The GI50 (IGROV-1) was > 100 µM (inactive), the GI50 (SW-620) was > 100 µM (inactive) and the GI50 (SR) was > 100 µM (inactive). The GI50 (OVCAR-8) was > 100 µM (inactive), the GI50 (CAKI-1) was > 100 µM (inactive) and the GI50 (HL-60) was > 100 µM (inactive). For the same molecule, the GI50 (NCI-H226) was > 100 µM (inactive), the GI50 (UACC-62) was > 100 µM (inactive) and the GI50 (U-251) was > 100 µM (inactive). For the same molecule, the GI50 (MDA-MB-435) was > 100 µM (inactive), the GI50 (DU-145) was > 100 µM (inactive) and the GI50 (TK-10) was > 100 µM (inactive). For the same molecule, the GI50 (HCT-116) was > 100 µM (inactive), the GI50 (MCF7) was > 100 µM (inactive) and the GI50 (CCRF-CEM) was > 100 µM (inactive). For the same molecule, the GI50 (HT-29) was > 100 µM (inactive), the GI50 (PC-3) was > 100 µM (inactive) and the GI50 (MOLT-4) was > 100 µM (inactive). The GI50 (SNB-75) was > 100 µM (inactive), the GI50 (MDA-N) was > 100 µM (inactive) and the GI50 (MDA-MB-231) was > 100 µM (inactive). The GI50 (NCI-H460) was > 100 µM (inactive), the GI50 (ACHN) was > 100 µM (inactive) and the GI50 (HCT-15) was greater than 100 µM. The GI50 (Malme-3M) was > 100 µM (inactive), the GI50 (NCI/ADR-RES) was > 100 µM (inactive) and the GI50 (SK-MEL-5) was > 100 µM (inactive). The GI50 (BT-549) was > 100 µM (inactive), the GI50 (EKVX) was > 100 µM (inactive) and the GI50 (SNB-19) was > 100 µM (inactive). The GI50 (SN12C) was > 100 µM (inactive), the GI50 (LOX IMVI) was > 100 µM (inactive) and the GI50 (T47D) was > 100 µM (inactive). The GI50 (RPMI-8226) was > 100 µM (inactive), the GI50 (COLO 205) was > 100 µM (inactive) and the GI50 (HOP-92) was > 100 µM (inactive). For the same molecule, the GI50 (SK-MEL-2) was > 100 µM (inactive), the GI50 (NCI-H522) was > 100 µM (inactive) and the GI50 (SF-268) was > 100 µM (inactive). For the same molecule, the GI50 (OVCAR-5) was > 100 µM (inactive), the GI50 (UO-31) was > 100 µM (inactive) and the GI50 (SF-295) was > 100 µM (inactive). For the same molecule, the GI50 (A549) was > 100 µM (inactive), the GI50 (RXF 393) was > 100 µM (inactive) and the GI50 (K562) was > 100 µM (inactive). For the same molecule, the GI50 (SF-539) was > 100 µM (inactive), the GI50 (SK-MEL-28) was > 100 µM (inactive) and the GI50 (KM12) was > 100 µM (inactive). For the same molecule, the GI50 (A498) was > 100 µM (inactive), the GI50 (Hs-578T) was > 100 µM (inactive) and the GI50 (HCC 2998) was > 100 µM (inactive). For the same molecule, the GI50 (UACC-257) was > 100 µM (inactive).
With `Nc1ncc(Sc2ccccc2C(=O)O)s1` the GI50 (NCI-H23) was > 100 µM (inactive), the GI50 (786-0) was > 100 µM (inactive) and the GI50 (OVCAR-3) was > 100 µM (inactive). The GI50 (M14) was > 100 µM (inactive), the GI50 (HOP-62) was > 100 µM (inactive) and the GI50 (IGROV-1) was > 100 µM (inactive). For the same molecule, the GI50 (SW-620) was > 100 µM (inactive), the GI50 (SR) was > 100 µM (inactive) and the GI50 (OVCAR-8) was > 100 µM (inactive). The GI50 (CAKI-1) was > 100 µM (inactive), the GI50 (HL-60) was > 100 µM (inactive) and the GI50 (NCI-H226) was > 100 µM (inactive). For the same molecule, the GI50 (UACC-62) was > 100 µM (inactive), the GI50 (U-251) was > 100 µM (inactive) and the GI50 (MDA-MB-435) was > 100 µM (inactive). The GI50 (DU-145) was > 100 µM (inactive), the GI50 (TK-10) was > 100 µM (inactive) and the GI50 (HCT-116) was > 100 µM (inactive). For the same molecule, the GI50 (MCF7) was > 100 µM (inactive), the GI50 (CCRF-CEM) was > 100 µM (inactive) and the GI50 (HT-29) was > 100 µM (inactive). For the same molecule, the GI50 (PC-3) was > 100 µM (inactive), the GI50 (MOLT-4) was > 100 µM (inactive) and the GI50 (SNB-75) was > 100 µM (inactive). The GI50 (MDA-N) was > 100 µM (inactive), the GI50 (MDA-MB-231) was > 100 µM (inactive) and the GI50 (NCI-H460) was > 100 µM (inactive). The GI50 (ACHN) was > 100 µM (inactive), the GI50 (HCT-15) was greater than 100 µM and the GI50 (NCI/ADR-RES) was > 100 µM (inactive). The GI50 (SK-MEL-5) was > 100 µM (inactive), the GI50 (BT-549) was > 100 µM (inactive) and the GI50 (EKVX) was > 100 µM (inactive). For the same molecule, the GI50 (SNB-19) was > 100 µM (inactive), the GI50 (SN12C) was > 100 µM (inactive) and the GI50 (LOX IMVI) was > 100 µM (inactive). For the same molecule, the GI50 (T47D) was > 100 µM (inactive), the GI50 (RPMI-8226) was > 100 µM (inactive) and the GI50 (COLO 205) was > 100 µM (inactive). For the same molecule, the GI50 (HOP-92) was > 100 µM (inactive), the GI50 (SK-MEL-2) was > 100 µM (inactive) and the GI50 (SF-268) was > 100 µM (inactive). For the same molecule, the GI50 (OVCAR-5) was > 100 µM (inactive), the GI50 (UO-31) was > 100 µM (inactive) and the GI50 (SF-295) was > 100 µM (inactive). The GI50 (A549) was > 100 µM (inactive), the GI50 (RXF 393) was > 100 µM (inactive) and the GI50 (K562) was > 100 µM (inactive). The GI50 (SF-539) was > 100 µM (inactive), the GI50 (SK-MEL-28) was > 100 µM (inactive) and the GI50 (KM12) was > 100 µM (inactive). For the same molecule, the GI50 (A498) was > 100 µM (inactive), the GI50 (Hs-578T) was > 100 µM (inactive) and the GI50 (UACC-257) was > 100 µM (inactive).
In the case of `CN(C)CCCNc1c(C#N)[n+]([O-])c2cc(Cl)ccc2[n+]1[O-]`, the GI50 (NCI-H23) is reported as 7.74 µM (inactive), the GI50 (786-0) is reported as 9.95 µM (inactive) and the GI50 (OVCAR-3) is reported as 5.68 µM (inactive). For the same molecule, the GI50 (SK-OV-3) was 18.3 µM (inactive), the GI50 (M14) was 8.13 µM (inactive) and the GI50 (HOP-62) was 11.4 µM (inactive). The GI50 (IGROV-1) was 1.71 µM (inactive), the GI50 (SW-620) was 9.14 µM (inactive) and the GI50 (SR) was 0.867 µM (active). For the same molecule, the GI50 (OVCAR-8) was 11.7 µM (inactive), the GI50 (CAKI-1) was 7.91 µM (inactive) and the GI50 (NCI-H226) was 12.4 µM (inactive). For the same molecule, the GI50 (UACC-62) was 5.48 µM (inactive), the GI50 (U-251) was 15.2 µM (inactive) and the GI50 (MDA-MB-435) was 17.3 µM (inactive). The GI50 (DU-145) was 21.2 µM (inactive), the GI50 (TK-10) was 6.4 µM (inactive) and the GI50 (HCT-116) was 7.18 µM (inactive). For the same molecule, the GI50 (MCF7) was 9.38 µM (inactive), the GI50 (CCRF-CEM) was 3.21 µM (inactive) and the GI50 (HT-29) was 5.58 µM (inactive). The GI50 (PC-3) was 4.91 µM (inactive), the GI50 (MOLT-4) was 1.18 µM (inactive) and the GI50 (SNB-75) was 31.9 µM (inactive). For the same molecule, the GI50 (MDA-N) was 17.7 µM (inactive), the GI50 (MDA-MB-231) was 10.4 µM (inactive) and the GI50 (NCI-H460) was 2.62 µM (inactive). For the same molecule, the GI50 (ACHN) was 5.5 µM (inactive), the GI50 (HCT-15) was 3.75 µM and the GI50 (Malme-3M) was 3.85 µM (inactive). For the same molecule, the GI50 (NCI/ADR-RES) was 13.2 µM (inactive), the GI50 (SK-MEL-5) was 5.02 µM (inactive) and the GI50 (BT-549) was 6.79 µM (inactive). For the same molecule, the GI50 (EKVX) was 5.78 µM (inactive), the GI50 (SNB-19) was 26.2 µM (inactive) and the GI50 (SN12C) was 17.9 µM (inactive). The GI50 (LOX IMVI) was 10.2 µM (inactive), the GI50 (T47D) was 11.4 µM (inactive) and the GI50 (OVCAR-4) was 4.75 µM (inactive). For the same molecule, the GI50 (RPMI-8226) was 3.27 µM (inactive), the GI50 (COLO 205) was 4.84 µM (inactive) and the GI50 (HOP-92) was 2.69 µM (inactive). The GI50 (SK-MEL-2) was 9.62 µM (inactive), the GI50 (NCI-H522) was 3.1 µM (inactive) and the GI50 (SF-268) was 8.89 µM (inactive). For the same molecule, the GI50 (OVCAR-5) was > 61.7 µM (inactive), the GI50 (UO-31) was 13.4 µM (inactive) and the GI50 (SF-295) was 10.6 µM (inactive). The GI50 (A549) was 7.67 µM (inactive), the GI50 (RXF 393) was 21.2 µM (inactive) and the GI50 (K562) was 3.92 µM (inactive). For the same molecule, the GI50 (SF-539) was 14.1 µM (inactive), the GI50 (SK-MEL-28) was 65.5 µM (inactive) and the GI50 (KM12) was 7.73 µM (inactive). For the same molecule, the GI50 (A498) was 22.1 µM (inactive), the GI50 (Hs-578T) was 31.6 µM (inactive) and the GI50 (HCC 2998) was 5.53 µM (inactive). The GI50 (UACC-257) was 17.7 µM (inactive).
